Where a SMILES comes first, the peptide text is derived from it. Bridges are numbered along the chain shown (N, C = ends). [ ]: non-standard residue; d: D form. Hyp = O=C(O)[C@@H]1C[C@@H](O)CN1; NMeNle = CCCC[C@H](NC)C(=O)O; NMeA = CN[C@@H](C)C(=O)O; Orn = NCCC[C@H](N)C(=O)O; Dab = NCC[C@H](N)C(=O)O; Sar = CNCC(=O)O

A word on the IC50: it is the point on the concentration scale where inhibition reaches its midpoint. A low value points to greater potency.

PD-1-Ig binding to PD-L1-TVMV-His (PD-L1-His), sequence (Q9NZQ7 other isoform, or with tags, fused parts or gaps): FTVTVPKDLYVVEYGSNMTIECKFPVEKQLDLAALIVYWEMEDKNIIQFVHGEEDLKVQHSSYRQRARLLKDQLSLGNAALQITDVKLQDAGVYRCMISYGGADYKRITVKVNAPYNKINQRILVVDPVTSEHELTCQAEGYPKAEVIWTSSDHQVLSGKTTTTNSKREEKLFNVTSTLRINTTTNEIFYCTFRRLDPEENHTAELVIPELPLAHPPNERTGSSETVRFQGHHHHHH

One assay has as its target PD-1-Ig binding to PD-L1-TVMV-His (PD-L1-His) (Homo sapiens (Human), UniProt Q9NZQ7). Nature of the assay: PD-1/PD-L1 Homogenous Time-Resolved Fluorescence (HTRF) binding assay (PD-1-Ig/PD-L1-His). The following applies: PD-1-Ig (20 nM)/PD-L1-His (10 nM); numeric values. From the text:
Methods for Testing the Ability of Macrocyclic Compounds to Compete for the Binding of PD-1 to PD-L1 Using Homogenous Time-Resolved Fluorescence (HTRF) Binding Assays
The ability of the macrocyclic compounds of the present disclosure to bind to PD-L1 was investigated using a PD-1/PD-L1 Homogenous Time-Resolved Fluorescence (HTRF) binding assay.
Homogenous Time-Resolved Fluorescence (HTRF) Assays of Binding of Soluble PD-1 to Soluble PD-L1. Soluble PD-1 and soluble PD-L1 refers to proteins with carboxyl-end truncations that remove the transmembrane-spanning regions and are fused to heterologous sequences, specifically the Fc portion of the human immunoglobulin G sequence (Ig) or the hexahistidine epitope tag (His). All binding studies were performed in an HTRF assay buffer consisting of dPBS supplemented with 0.1% (w/v) bovine serum albumin and 0.05% (v/v) Tween-20. For the PD-1-Ig/PD-L1-His binding assay, inhibitors were pre-incubated with PD-L1-His (10 nM final) for 15 m in 4 μl of assay buffer, followed by addition of PD-1-Ig (20 nM final) in 1 μl of assay buffer and further incubation for 15 m. PD-L1 fusion proteins from either human, cynomologous macaques, mouse, or other species were used. HTRF detection was achieved using europium crypate-labeled anti-Ig monoclonal antibody (1 nM final) and allophycocyanin (APC) labeled anti-His monoclonal antibody (20 nM final). Antibodies were diluted in HTRF detection buffer and 5 μl was dispensed on top of binding reaction. […] Additional binding assays were established between PD-1-Ig/PD-L2-His (20 and 5 nM, respectively), CD80-His/PD-L1-Ig (100 and 10 nM, respectively) and CD80-His/CTLA4-Ig (10 and 5 nM, respectively).
Recombinant Proteins. […] Human PD-L2-His (Sino Biologicals), CD80-His (Sino Biologicals), CTLA4-Ig (RnD Systems) were all obtained through commercial sources.
For orientation: Time-resolved FRET reads energy transfer from a long-lived donor to a nearby acceptor.
For `CCCC[C@H]1C(=O)N(C)[C@@H](CCCC)C(=O)N[C@@H](C)C(=O)N[C@H](C(=O)NCC(N)=O)CSCC(=O)N[C@@H](Cc2ccc(O)cc2)C(=O)N(C)[C@@H](C)C(=O)N[C@H]2CCCNC(=O)CC[C@@H](NC(=O)[C@H](Cc3cn(C(=O)C(F)(F)F)cn3)NC(=O)[C@@H]3CCCC3C2=O)C(=O)N2C[C@H](O)C[C@H]2C(=O)N[C@@H](Cc2c[nH]c3ccccc23)C(=O)N[C@@H](CO)C(=O)N[C@@H](Cc2c[nH]c3ccccc23)C(=O)N1C` (some centres unmarked) [Example 1403], the IC50 is 0.007 µM.

The assay is the same for the next values; noted with them: PD-1-Ig (20 nM)/PD-L1-His (10 nM); range classes.
`CCCC[C@H]1C(=O)N(C)[C@@H](CCCC)C(=O)N[C@@H](CCCNC(=N)N)C(=O)N[C@H](C(=O)NCC(N)=O)CSCC(=O)N[C@@H](Cc2ccc(O)cc2)C(=O)N(C)[C@@H](C)C(=O)N[C@H]2CCNC(=O)CC[C@H](NC(=O)[C@H](C)NC(=O)[C@@H]3CCCN3C2=O)C(=O)N2C[C@H](O)C[C@H]2C(=O)N[C@@H](Cc2c[nH]c3ccccc23)C(=O)N[C@@H](CO)C(=O)N[C@@H](Cc2c[nH]c3ccccc23)C(=O)N1C` [Example 1400] ({CH2CO}-Y[NMeA][Dab]PAE[Hyp]WSW[NMeNle][NMeNle]RCG-NH2; lactam 3-6; thioether N-14) had an IC50 of 0.01 to 0.099 µM.
Still for that read-out and setting: under `CCCC[C@H]1C(=O)N(C)[C@@H](CCCC)C(=O)N[C@@H](C)C(=O)N[C@H]2CSCC(=O)N[C@@H](Cc3ccc(O)cc3)C(=O)N(C)[C@@H](C)C(=O)N[C@@H](CC(N)=O)C(=O)N3CCC[C@H]3C(=O)N[C@@H](Cc3cn(C(=O)C(F)(F)F)cn3)C(=O)N[C@@H](CC(C)C)C(=O)N[C@@H](CCCNC(=O)CNC2=O)C(=O)N[C@@H](Cc2c[nH]c3ccccc23)C(=O)N[C@@H](CO)C(=O)N[C@@H](Cc2c[nH]c3ccccc23)C(=O)N1C` [Example 1401] stands 0.01 to 0.099 µM; under `CCCC[C@H]1C(=O)N(C)[C@@H](CCCC)C(=O)N[C@@H](CCCNC(=N)N)C(=O)N[C@H](C(=O)NCC(N)=O)CSCC(=O)N[C@@H](Cc2ccc(O)cc2)C(=O)N(C)[C@@H](C)C(=O)N[C@H]2CCCNC(=O)CC[C@H](NC(=O)[C@H](C)NC(=O)[C@@H]3CCCN3C2=O)C(=O)N2C[C@H](O)C[C@H]2C(=O)N[C@@H](Cc2c[nH]c3ccccc23)C(=O)N[C@@H](CO)C(=O)N[C@@H](Cc2c[nH]c3ccccc23)C(=O)N1C` [Example 1402] ({CH2CO}-Y[NMeA][Orn]PAE[Hyp]WSW[NMeNle][NMeNle]RCG-NH2; lactam 3-6; thioether N-14), 0.01 to 0.099 µM; under `CCCC[C@H]1C(=O)N(C)[C@@H](CCCC)C(=O)N[C@@H](C)C(=O)N[C@H](C(=O)NCC(N)=O)CSCC(=O)N[C@@H](Cc2ccc(O)cc2)C(=O)N(C)[C@@H](C)C(=O)N[C@H]2CC(=O)NCC[C@H](NC(=O)[C@H](Cc3cnc[nH]3)NC(=O)[C@@H]3CCCN3C2=O)C(=O)N2C[C@H](O)C[C@H]2C(=O)N[C@@H](Cc2c[nH]c3ccccc23)C(=O)N[C@@H](CO)C(=O)N[C@@H](Cc2c[nH]c3ccccc23)C(=O)N1C` [Example 1500] ({CH2CO}-Y[NMeA]DPH[Dab][Hyp]WSW[NMeNle][NMeNle]ACG-NH2; lactam 3-6; thioether N-14), 0.01 to 0.099 µM.
Same read-out and setting: next, `CCCC[C@H]1C(=O)N(C)[C@@H](CCCC)C(=O)N[C@@H](C)C(=O)N[C@H](C(=O)NCC(N)=O)CSCC(=O)N[C@@H](Cc2ccc(O)cc2)C(=O)N(C)[C@@H](C)C(=O)N[C@H]2CCC(=O)NCC[C@H](NC(=O)[C@H](Cc3cnc[nH]3)NC(=O)[C@@H]3CCCN3C2=O)C(=O)N2C[C@H](O)C[C@H]2C(=O)N[C@@H](Cc2c[nH]c3ccccc23)C(=O)N[C@@H](CO)C(=O)N[C@@H](Cc2c[nH]c3ccccc23)C(=O)N1C` [Example 1501] ({CH2CO}-Y[NMeA]EPH[Dab][Hyp]WSW[NMeNle][NMeNle]ACG-NH2; lactam 3-6; thioether N-14): 0.01 to 0.099 µM; `CCCC[C@H]1C(=O)N(C)[C@@H](CCCC)C(=O)N[C@@H](C)C(=O)N[C@H](C(=O)NCC(N)=O)CSCC(=O)N[C@@H](Cc2ccc(O)cc2)C(=O)N(C)[C@@H](C)C(=O)N[C@H]2CCNC(=O)CC[C@H](NC(=O)[C@H](Cc3cnc[nH]3)NC(=O)[C@@H]3CCCN3C2=O)C(=O)N2C[C@H](O)C[C@H]2C(=O)N[C@@H](Cc2c[nH]c3ccccc23)C(=O)N[C@@H](CO)C(=O)N[C@@H](Cc2c[nH]c3ccccc23)C(=O)N1C` [Example 1504] ({CH2CO}-Y[NMeA][Dab]PHE[Hyp]WSW[NMeNle][NMeNle]ACG-NH2; lactam 3-6; thioether N-14): 0.01 to 0.099 µM.
The molecule `CCCC[C@H]1C(=O)N(C)[C@@H](CCCC)C(=O)N[C@@H](C)C(=O)N[C@H](C(=O)NCC(N)=O)CSCC(=O)N[C@@H](Cc2ccc(O)cc2)C(=O)N(C)[C@@H](C)C(=O)N[C@H]2CCC(=O)NCCC[C@H](NC(=O)[C@H](Cc3cnc[nH]3)NC(=O)[C@@H]3CCCN3C2=O)C(=O)N2C[C@H](O)C[C@H]2C(=O)N[C@@H](Cc2c[nH]c3ccccc23)C(=O)N[C@@H](CO)C(=O)N[C@@H](Cc2c[nH]c3ccccc23)C(=O)N1C` [Example 1505] ({CH2CO}-Y[NMeA]EPH[Orn][Hyp]WSW[NMeNle][NMeNle]ACG-NH2; lactam 3-6; thioether N-14) displayed an IC50 of 0.01 to 0.099 µM.
For the molecule `CCCC[C@H]1C(=O)N(C)[C@@H](CCCC)C(=O)N[C@@H](C)C(=O)N[C@H](C(=O)NCC(N)=O)CSCC(=O)N[C@@H](Cc2ccc(O)cc2)C(=O)N(C)[C@@H](C)C(=O)N[C@H]2CCCNC(=O)CC[C@H](NC(=O)[C@H](Cc3cnc[nH]3)NC(=O)[C@@H]3CCCN3C2=O)C(=O)N2C[C@H](O)C[C@H]2C(=O)N[C@@H](Cc2c[nH]c3ccccc23)C(=O)N[C@@H](CO)C(=O)N[C@@H](Cc2c[nH]c3ccccc23)C(=O)N1C` [Example 1506] ({CH2CO}-Y[NMeA][Orn]PHE[Hyp]WSW[NMeNle][NMeNle]ACG-NH2; lactam 3-6; thioether N-14), the IC50 is 0.01 to 0.099 µM.
Same read-out and setting: next, `CCCC[C@H]1C(=O)N(C)[C@@H](CCCC)C(=O)N[C@@H](C)C(=O)N[C@H](C(=O)NCC(N)=O)CSCC(=O)N[C@@H](Cc2ccc(O)cc2)C(=O)N(C)[C@@H](C)C(=O)N[C@H]2CC(=O)NCCCC[C@H](NC(=O)[C@H](Cc3cnc[nH]3)NC(=O)[C@@H]3CCCN3C2=O)C(=O)N2C[C@H](O)C[C@H]2C(=O)N[C@@H](Cc2c[nH]c3ccccc23)C(=O)N[C@@H](CO)C(=O)N[C@@H](Cc2c[nH]c3ccccc23)C(=O)N1C` [Example 1507] ({CH2CO}-Y[NMeA]DPHK[Hyp]WSW[NMeNle][NMeNle]ACG-NH2; lactam 3-6; thioether N-14): 0.01 to 0.099 µM; `CCCC[C@H]1C(=O)N(C)[C@@H](CCCC)C(=O)N[C@@H](C)C(=O)N[C@H](C(=O)NCC(N)=O)CSCC(=O)N[C@@H](Cc2ccc(O)cc2)C(=O)N(C)[C@@H](C)C(=O)N[C@H]2CC(=O)NCCC[C@H](NC(=O)[C@H](Cc3cnc[nH]3)NC(=O)[C@@H]3CCCN3C2=O)C(=O)N2C[C@H](O)C[C@H]2C(=O)N[C@@H](Cc2c[nH]c3ccccc23)C(=O)N[C@@H](CO)C(=O)N[C@@H](Cc2c[nH]c3ccccc23)C(=O)N1C` [Example 1508] ({CH2CO}-Y[NMeA]DPH[Orn][Hyp]WSW[NMeNle][NMeNle]ACG-NH2; lactam 3-6; thioether N-14): 0.01 to 0.099 µM.
`CCCC[C@H]1C(=O)N(C)[C@@H](CCCC)C(=O)N[C@H]2CCC(=O)NCCCC[C@H](NC(=O)[C@H](Cc3c[nH]c4ccccc34)NC(=O)CN(C)C(=O)[C@H](CC(C)C)NC(=O)[C@H](Cc3c[nH]cn3)NC(=O)[C@@H]3CCCN3C(=O)[C@H](CC(N)=O)NC(=O)[C@H](C)N(C)C(=O)[C@H](Cc3ccccc3)NC(=O)CSC[C@@H](C(=O)NCC(N)=O)NC2=O)C(=O)N[C@@H](Cc2c[nH]c3ccccc23)C(=O)N1C` [Example 5001] ({CH2CO}-F[NMeA]NPHL[Sar]WKW[NMeNle][NMeNle]ECG-NH2; lactam 9-13; thioether N-14) registered an IC50 of 0.003 to 0.0099 µM.
Same read-out and setting: under `CCCC[C@H]1C(=O)N(C)[C@@H](CCCC)C(=O)N[C@H]2CCCCNC(=O)CC[C@H](NC(=O)[C@H](Cc3c[nH]c4ccccc34)NC(=O)CN(C)C(=O)[C@H](CC(C)C)NC(=O)[C@H](Cc3c[nH]cn3)NC(=O)[C@@H]3CCCN3C(=O)[C@H](CC(N)=O)NC(=O)[C@H](C)N(C)C(=O)[C@H](Cc3ccccc3)NC(=O)CSC[C@@H](C(=O)NCC(N)=O)NC2=O)C(=O)N[C@@H](Cc2c[nH]c3ccccc23)C(=O)N1C` [Example 5002] ({CH2CO}-F[NMeA]NPHL[Sar]WEW[NMeNle][NMeNle]KCG-NH2; lactam 9-13; thioether N-14) stands 0.01 to 0.099 µM; under `CCCC[C@H]1C(=O)N(C)[C@@H](CCCC)C(=O)N[C@H]2CCC(=O)NCCC[C@H](NC(=O)[C@H](Cc3c[nH]c4ccccc34)NC(=O)CN(C)C(=O)[C@H](CC(C)C)NC(=O)[C@H](Cc3c[nH]cn3)NC(=O)[C@@H]3CCCN3C(=O)[C@H](CC(N)=O)NC(=O)[C@H](C)N(C)C(=O)[C@H](Cc3ccccc3)NC(=O)CSC[C@@H](C(=O)NCC(N)=O)NC2=O)C(=O)N[C@@H](Cc2c[nH]c3ccccc23)C(=O)N1C` [Example 5003] ({CH2CO}-F[NMeA]NPHL[Sar]W[Orn]W[NMeNle][NMeNle]ECG-NH2; lactam 9-13; thioether N-14), 0.01 to 0.099 µM.

The values above are taken from patent publication US10143746B2, “Immunomodulators” (BRISTOL-MYERS SQUIBB COMPANY, priority 2016, dated 2018).
